Structures are written as SMILES. Values joined by “and” are separate entries in the source; they are usually repeats but may differ in a detail not shown here. Identical values can stand only once.

This note sets out measurements from the Deep4Chem optical property database.

A short description of the data set: solvent given as SMILES.

For `c1ccc(-n2c(-c3ccc(-c4ccc(-c5ccc(-c6nc7c8ccccc8c8ccccc8c7n6-c6ccccc6)cc5)cc4)cc3)nc3ccccc32)cc1`, the absorption maximum worked out at 341 nm (in C1CCOC1); 344 nm (in C1COCCO1); 337 nm (in CC#N); 341 nm (in CCCCCC); 340 nm (in CCCCOCCCC); 341 nm (in CCN(CC)CC). For the same compound, the absorption maximum is 339 nm (in CCOC(C)=O); 340 nm (in CCOCC); 342 nm (in CN(C)C=O); 345 nm (in Cc1ccccc1); 340 nm (in ClC(Cl)Cl); 343 nm (in ClC=C(Cl)Cl). In addition, the absorption maximum (in ClCCl) turned out to be 340 nm.
For the compound `C(#Cc1ccccc1)C(C#Cc1ccccc1)=Cc1c2ccccc2c(C=C(C#Cc2ccccc2)C#Cc2ccccc2)c2ccccc12`, where the note is “in ClC(Cl)Cl”, the absorption maximum is 432 nm.
`CC(C)(C)c1ccc(-c2cc(-c3ccc(-c4cc(-c5ccc(C(C)(C)C)cc5)c(C(=O)N5CCOCC5)s4)s3)sc2C(=O)N2CCOCC2)cc1` gave an absorption maximum (in ClCCl) of 377 nm.
With `CCOC(=O)C1=CN(c2ccccc2)C=C(C(=O)OCC)C1`, the absorption maximum by setting is: (in C1CCOC1) 376 nm; (in CO) 380 nm.
Where the note is “in ClCCl”, `COc1ccc(-c2cc3c(ccc4sc5ccc6sc(-c7ccc(C#N)cc7)cc6c5c43)s2)cc1` had an absorption maximum of 383 nm.
Regarding `CCOC(=O)C1=CN(Cc2ccccc2)C=C(C(=O)OCC)C1`, the absorption maximum turned out to be 367 nm (in C1CCOC1) and 371 nm (in CO).
`Fc1cc(-c2ccc(-c3nc4cc(Br)ccc4[nH]3)cc2)ccc1-c1ccc(-c2nc3cc(Br)ccc3[nH]2)cc1` returned an absorption maximum (in CN(C)C=O) of 342 nm.
Take `CCCCCCCCCCCn1cccc1C1=[N+]2C(=Cc3c(C)cc(C)n3[B-]2(F)F)c2ccccc21`: the absorption maximum (in C1CCOC1) is 584 nm; the absorption maximum (in CC#N) was 577 nm; the absorption maximum (in CCCCCC) is given as 583 nm; the absorption maximum (in CO) is 579 nm; the absorption maximum (in Cc1ccccc1) turned out to be 590 nm; the absorption maximum (in ClCCl) amounted to 584 nm.
As to `CCCCCOc1cc2oc(=O)c3c4ccc(O)cc4c4ccc5cccc6c(c1)c2c3c4c56`, the absorption maximum (in C1CCOC1) is on record as 443 nm.
Regarding `c1ccc(Nc2nc(Nc3ccccc3)nc(Nc3ccc4ccc5cccc6ccc3c4c56)n2)cc1`, the absorption maximum is, setting by setting: (in CC#N) 342 nm; (in CCCCOCCCC) 342 nm; (in CO) 340 nm.
In the case of `CN(C)C1=Nc2cccc3cccc1c23`, the absorption maximum (in CC#N) came out at 427 nm.
Regarding `O=C1c2ccccc2-c2c(-c3cc(Cl)ccc3O)[nH]c(=O)n21`, the absorption maximum came to 390 nm (in CC#N), 393 nm (in CO) and 395 nm (in ClCCl).
`COc1cc2cc(OC)c(C#Cc3ccc([N+](=O)[O-])cc3)cc2cc1C#Cc1ccc([N+](=O)[O-])cc1` returned an absorption maximum (in C1CCOC1) of 361 nm, an absorption maximum (in ClC(Cl)Cl) of 362 nm and an absorption maximum (in ClCCl) of 360 nm.
`COC(=O)C1CCN(c2ccc3c(N4CCCCC4)c4ccc(=[N+]5CCC(C(=O)OC)CC5)cc-4oc3c2)CC1` (stereo unspecified): the absorption maximum (in ClCCl) is 482 nm.
On to `CN(C)c1ccc(/C=C/c2nc(/C=C/c3ccc(N(c4ccccc4)c4ccccc4)cc3)cc(/C=C/c3ccc(N(c4ccccc4)c4ccccc4)cc3)n2)cc1`, for which the absorption maximum (in ClCCl) turned out to be 409 nm.
Under “in CC#N”, `C(=C\c1cc[n+](Cc2ccccc2)cc1)/c1cc[n+](Cc2ccccc2)cc1` came in with an absorption maximum of 324 nm.
For the setting “in ClCCl”, `[O-][n+]1c(/C=C/C=C/c2ccccc2)nc(N2CCOCC2)c2c1CCCC2` gave an absorption maximum of 400 nm.
Turning to `N#Cc1c(-n2nnc3ccccc32)n([C@H]2C[C@H](O)[C@@H](CO)O2)c2ncnc(N)c12`, for the setting “in CO”, the absorption maximum stood at 278 nm.
Compound `Cc1cc2cc(C)c3c4ccccc4[nH]c3c2o1` displayed an absorption maximum (in ClCCl) of 302 nm.
`O=C1c2ccc3c4ccc5c6c(ccc(c7ccc(c2c37)C(=O)N1c1ccncc1)c64)C(=O)N(c1ccncc1)C5=O`: the absorption maximum is, setting by setting: (in C1CCOC1) 522 nm; (in C1COCCO1) 525 nm; (in CC(C)=O) 519 nm; (in CC(C)O) 525 nm; (in CCCCO) 525 nm; (in CCO) 524 nm. In addition, the absorption maximum (in CCOC(C)=O) is reported as 519 nm; the absorption maximum (in CN(C)C=O) stood at 524 nm; the absorption maximum (in CO) is recorded as 525 nm; the absorption maximum (in CS(C)=O) is listed as 528 nm; the absorption maximum (in ClC(Cl)(Cl)Cl) was 524 nm; the absorption maximum (in ClC(Cl)Cl) amounted to 530 nm.
Regarding `COc1ccccc1C1=[N+]2C(=Cc3c4c(c(-c5ccccc5OC)n3[B-]2(F)F)C2CCC4CC2)C2=C1C1CCC2CC1`, the absorption maximum (in ClCCl) was 550 nm.
For the compound `O=C(c1ccc2c3c(sc2c1)-c1ccccc1P3(=O)c1ccccc1)c1c(F)c(F)c(F)c(F)c1F` (stereo unspecified), for the setting “in ClCCl”, the absorption maximum is 368 nm and 381 nm.
Where the note is “in ClC(Cl)Cl”, `CCCCCCCCn1c(=O)c2cc3cc4cc5c(=O)n(CCCCCCCC)c(=O)c5cc4c(C#Cc4ccc(N(c5ccccc5)c5ccccc5)cc4)c3cc2c1=O` showed an absorption maximum of 515 nm.
For `CN(C)c1ccc(C2=C(c3ccccc3)c3sc4ccccc4[n+]3[B-](F)(F)O2)cc1`, for the setting “in C1CCOC1”, the absorption maximum is on record as 446 nm.
Turning to `O=C(O)CCCCCn1c2ccccc2c(=O)c2cc(Br)ccc21`, the absorption maximum (in O) is 439 nm.
`C[n+]1ccc(-c2cc[n+](C)cc2)cc1` registered an absorption maximum (in CC#N) of 260 nm.
In turn, `COC(=O)c1ccc(/C=C2\C=C(c3ccccc3)NC2=O)cc1` displayed an absorption maximum (in C1COCCO1) of 437 nm.
For `Nc1nc2c(ncn2[C@H]2C[C@H](O)[C@@H](CO)O2)c(=O)[nH]1`, the absorption maximum (in O) is 274 nm.
For `CC(=O)c1c(N[C@@H](CC(C)C)C(=O)O)c2ccc(N(C)C)cc2oc1=O`, the absorption maximum (in ClCCl) is 372 nm.
`N#Cc1c(-n2c3ccc(Cl)cc3c3cc(Cl)ccc32)c(C#N)c(-n2c3ccc(Cl)cc3c3cc(Cl)ccc32)c(-n2c3ccc(Cl)cc3c3cc(Cl)ccc32)c1-n1c2ccc(Cl)cc2c2cc(Cl)ccc21` showed an absorption maximum (in Cc1ccccc1) of 384 nm.
Turning to `CCOC(=O)c1ccc(C2=Cc3ccccc3P2(=O)c2ccccc2)cc1` (stereo unspecified), the absorption maximum (in ClCCl) is 353 nm.
Same read-out and setting: to `CC(C)c1cccc(C(C)C)c1N1C(c2ccccc2)=Cc2ccc3ccccc3[n+]2[B-]1(F)F` belongs 447 nm.
The compound `CCOC(=O)/N=c1/oc2cc(OC)cc(OC)c2cc1C#N` gave an absorption maximum (in ClCCl) of 376 nm.
Take `Cc1cc(=O)cc(-c2ccc(-c3nc4ccccn4c3NC3CCCCC3)cc2)o1`: the absorption maximum (in ClCCl) amounted to 357 nm.
As for `F[B-]1(F)n2c(cc3c2-c2ccccc2CC3)C(c2ccc(I)cc2)=C2C=C3CCc4ccccc4C3=[N+]21`, where the note is “in ClC(Cl)Cl”, the absorption maximum was 634 nm.
For `CC1=CC(c2ccc(N(C)C)cc2)=[N+]2C1=Nc1c(C)cc(-c3ccc(N(C)C)cc3)n1[B-]2(F)F`, the absorption maximum (in C1CCOC1) turned out to be 744 nm, the absorption maximum (in CS(C)=O) is listed as 774 nm and the absorption maximum (in Cc1ccccc1) is reported as 734 nm.
`COc1cc(OC)c2cc(-c3ccccc3CC#N)c(=O)oc2c1` came in with an absorption maximum (in ClC(Cl)Cl) of 342 nm.
As for `Cc1cc(-c2ccc(-c3n(C)c4ccccc4[n+]3C)cc2)ccc1-c1ccc(-c2n(C)c3ccccc3[n+]2C)cc1`, where the note is “in O”, the absorption maximum amounted to 299 nm.
Consider `Cc1cc(O)c(C(C)C)cc1/N=C/c1ccc(O)cc1`, for which the absorption maximum is on record as 339 nm (in C1CCCCC1); 342 nm (in C1CCOC1); 341 nm (in C1COCCO1); 334 nm (in CC#N); 345 nm (in CC(C)(C)O); 340 nm (in CC(C)O). Further, the absorption maximum is, setting by setting: (in CCCCCC) 339 nm; (in CCCCO) 340 nm; (in CCO) 340 nm; (in CCOC(C)=O) 340 nm; (in CN(C)C=O) 344 nm; (in CO) 341 nm. Also, the absorption maximum by setting is: (in CS(C)=O) 346 nm; (in ClC(Cl)Cl) 337 nm; (in ClCCl) 335 nm; (in O) 342 nm; (in OCCO) 342 nm.
For the setting “in c1cc(-c2cccc(-n3c4ccccc4c4ccccc43)c2)cc(-n2c3ccccc3c3ccccc32)c1”, `c1ccc(-c2nc(-c3ccccc3)nc(-c3ccc(-c4ccc5c(c4)C4(c6ccccc6-c6ccccc64)c4cc(-c6ccc(-c7nc(-c8ccccc8)nc(-c8ccccc8)n7)cc6)ccc4N5c4ccccc4)cc3)n2)cc1` returned an absorption maximum of 405.11 nm.
In the case of `CCN(CC)c1ccc2c(-c3ccccc3C(=O)O)c3c([o+]c2c1)/C(=C/C=C/c1ccc(N(C)C)cc1)CCC3`, the absorption maximum (in ClCCl) was 749 nm.
For the compound `c1ccc(-c2nc(-c3ccccc3)nc(-c3ccc(-n4c5ccccc5c5ccccc54)cc3)n2)cc1`, the absorption maximum (in Cc1ccccc1) is 364 nm.
Consider `CC(C)(C)c1cc2c(c(C(C)(C)C)c1)O[B-]1(c3ccc([B-]45OC(c6ccccc6)=N[N+]4=Cc4cc(C(C)(C)C)cc(C(C)(C)C)c4O5)cc3)OC(c3ccccc3)=N[N+]1=C2` (stereo unspecified), for which, under “in C1CCOC1”, the absorption maximum was determined as 455 nm.
On the same count and under the same terms, to `CC(C)(C)c1ccc(-c2nc(-c3ccc(C(C)(C)C)cc3)nc(-c3ccc(-n4c5ccccc5c5c6oc7ccccc7c6ccc54)c(C#N)c3)n2)cc1` belongs 379.46 nm.
Compound `N#Cc1c(N2CCCCC2)cc(-c2ccccc2)c2c1-c1ccccc1C2` came in with an absorption maximum (in C1CCOC1) of 360 nm.
Turning to `CCCCn1c2ccc3ccc4ccccc4c3c2c2c3c(ccc4ccccc43)ccc21`, the absorption maximum (in ClCCl) is listed as 337 nm.
With `Cc1ccc2c3ccc(C)cc3c3cc4c(C)cc(=O)oc4cc3c2c1`, the absorption maximum (in ClC(Cl)Cl) is recorded as 386 nm.
In the case of `N#CSc1ccc2n1[B-](F)(F)[N+]1=C(N3CCOCC3)C=CC1=C2c1ccccc1`, the absorption maximum runs as follows: (in CC#N) 452 nm; (in CCCCCC) 492 nm; (in CCOC(C)=O) 464 nm; (in CO) 458 nm; (in ClCCl) 468 nm.
